From patent US9650616B2, “Methods for increasing grain yield” (University of Florida Research Foundation, Inc., priority 2014, dated 2017)
Numbering of substitutions follows the chain as printed. Where two headings read alike, the source gives them in different places.

Columns and labels:
[1] = target: T1, maize endosperm AGPase, large subunit variant RGR (Q96R, D161G, A443R; numbering of SEQ ID NO: 20) (Zea mays, UniProt P55241+Q84PF5, A443R/D161G/Q96R); test: Apparent kinetic constants with 3-PGA, 37° C., RGR; format: biochemical; details: read-out: ATP Km
T1 sequence (P55241 46-516 A443R/D161G/Q96R): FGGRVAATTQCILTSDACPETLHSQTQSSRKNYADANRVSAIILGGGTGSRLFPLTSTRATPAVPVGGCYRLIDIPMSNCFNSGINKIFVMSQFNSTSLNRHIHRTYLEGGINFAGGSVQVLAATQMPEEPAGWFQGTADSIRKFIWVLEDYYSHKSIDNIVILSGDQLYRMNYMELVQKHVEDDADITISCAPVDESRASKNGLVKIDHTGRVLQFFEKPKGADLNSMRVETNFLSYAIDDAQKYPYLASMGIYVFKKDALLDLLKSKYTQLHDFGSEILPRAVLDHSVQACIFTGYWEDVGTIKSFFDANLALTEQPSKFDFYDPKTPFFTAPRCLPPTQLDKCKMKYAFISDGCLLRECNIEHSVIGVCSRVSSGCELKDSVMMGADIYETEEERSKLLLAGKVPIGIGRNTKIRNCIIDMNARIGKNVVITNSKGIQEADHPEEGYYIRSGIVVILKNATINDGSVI
T1 sequence (Q84PF5 1-474): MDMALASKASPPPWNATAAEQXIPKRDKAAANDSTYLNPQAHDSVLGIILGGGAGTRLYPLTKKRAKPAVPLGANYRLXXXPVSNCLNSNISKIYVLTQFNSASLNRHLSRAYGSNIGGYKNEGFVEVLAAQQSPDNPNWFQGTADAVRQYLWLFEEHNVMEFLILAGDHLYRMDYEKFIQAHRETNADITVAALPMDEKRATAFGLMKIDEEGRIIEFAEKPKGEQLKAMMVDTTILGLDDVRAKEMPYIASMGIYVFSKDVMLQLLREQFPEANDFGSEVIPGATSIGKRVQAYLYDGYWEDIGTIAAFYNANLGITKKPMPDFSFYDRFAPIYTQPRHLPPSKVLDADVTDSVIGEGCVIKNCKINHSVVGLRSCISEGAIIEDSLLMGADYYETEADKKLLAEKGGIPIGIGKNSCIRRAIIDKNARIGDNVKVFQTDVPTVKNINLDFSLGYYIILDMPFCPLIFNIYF
From the text: (§1) The small and large subunit plasmids of maize endosperm AGPase (pMONcBt2 and pMONcSh2, respectively) (Giroux et al., 1996) were expressed in E. coli AC70R1-504 cells (Iglesias et al., 1993) as previously described (Boehlein et al., 2008).
(§2) An endpoint assay was used to determine the rate of the AGPase reaction by coupling the formation of PPi to a decrease in NADH concentration (Boehlein et al., 2008). […] The Michaelis constants (Km) were obtained by varying one substrate in the presence of saturating concentrations of the second substrate. The activation constants were obtained by varying the activator at fixed levels of both substrates. All reactions were performed at 37° C. and mixes were prewarmed before starting the reaction with enzyme. […] The absorbance at 340 nm was monitored after 30 min and the amount of PPi produced was determined from a standard curve using PPi in complete reaction mixtures lacking AGPase. Blank samples contained complete reaction mixtures without enzyme and the change in absorbance between the blank and the reaction was used to calculate the amount of PPi produced. […]
(§3) The apparent Michaelis constant and maximum velocity of each reaction was calculated from a V vs. S plots using nonlinear regression analysis and the following equation, v=VmaxS/(Km+S), where v is the measured velocity, Vmax is the maximum velocity, S is the substrate concentration. […]

[2] = system: maize endosperm AGPase, heat stable ISM mutants; test: Apparent kinetic constants with 3-PGA, 37° C., ISM mutants collectively; format: biochemical, Zea mays; details: mutants versus wt maize, in the presence of 3-PGA
Experimental: An endpoint assay was used to determine the rate of the AGPase reaction by coupling the formation of PPi to a decrease in NADH concentration (Boehlein et al., 2008). […] The Michaelis constants (Km) were obtained by varying one substrate in the presence of saturating concentrations of the second substrate. The activation constants were obtained by varying the activator at fixed levels of both substrates. All reactions were performed at 37° C. and mixes were prewarmed before starting the reaction with enzyme. Reactions were terminated by boiling the reaction mixes for 2 minutes followed by development with 200 μl of coupling reagent (25 mM imidazole pH 7.4, 4 mM MgCl2, 1 mM EDTA, 0.2 mM NADH, 0.725 U aldolase, 0.4 U triose phosphate isomerase, 0.6 U glycerophosphate dehydrogenase, 1 mM fructose 6-phosphate and 0.8 μg purified PPi-PFK per reaction). The absorbance at 340 nm was monitored after 30 min and the amount of PPi produced was determined from a standard curve using PPi in complete reaction mixtures lacking AGPase. Blank samples contained complete reaction mixtures without enzyme and the change in absorbance between the blank and the reaction was used to calculate the amount of PPi produced. Reactions were linear with time and enzyme concentration.
The apparent Michaelis constant and maximum velocity of each reaction was calculated from a V vs. S plots using nonlinear regression analysis and the following equation, v=VmaxS/(Km+S), where v is the measured velocity, Vmax is the maximum velocity, S is the substrate concentration. The activation constant (Ka) was obtained using the following equation: V=Vmin+Vmax*(X)/(Ka+X), where Vmin is the velocity in the absence of activator and Vmax is the change in activity from Vmin to the total velocity. X is the activator concentration, Ka is the activation constant. All linear regression was carried out using the software program Prism (Graph Pad, San Diego Calif.).
Each mutant, comprising 1, 2, 3 or 4 changes, was grown in a large scale culture, expressed and purified according to standard procedures (Boehlein et al., 2005). […] Thus, the effects of these mutations on the kinetic constants are minimal. Next, the activation constant, Ka, was determined for each of the mutant enzymes. Here a decrease in the Ka for each of the mutants of approximately 3-6 fold was observed. This property appears to stem from the D161G change, and includes all enzymes which carry this mutation (Table 8). To be certain the effect is the result of the D161G mutation, and not the result of other single mutant changes, Q96R and Q96G were purified and characterized.

[3] = system: maize endosperm AGPase, wild type (Maize-wt); details: absence of 3-PGA, cited from earlier work
[4] = system: maize endosperm AGPase, wild type; details: cited from earlier work
[5] = target: T2, maize endosperm AGPase, large subunit variant GGR (Q96G, D161G, A443R; numbering of SEQ ID NO: 20) (Zea mays, UniProt P55241+Q84PF5, A443R/D161G/Q96G); test: Apparent kinetic constants with 3-PGA, 37° C., GGR; format: biochemical; details: read-out: ATP Km
T2 sequence (P55241 46-516 A443R/D161G/Q96G): T1 sequence (P55241 46-516 A443R/D161G/Q96R) with R51G
T2 sequence (Q84PF5 1-474): T1 sequence (Q84PF5 1-474)
From the text: as §1, §2, §3

Nc1ncnc2c1ncn2[C@@H]1O[C@H](COP(=O)(O)OP(=O)(O)OP(=O)(O)O)[C@@H](O)[C@H]1O [ATP]
Km [1]: 62 µM
largest variation in Km [2]: approximately two-fold
Km ([3]; apparent Km in the presence of 15 mM G-1-P, read-out: ATP Km (apparent)): 4 mM
kcat [3]: 35.2 s⁻¹
Km ([4]; Maize wt, absence of 3-PGA, ATP varied, Pi inhibition, P-MT, read-out: Km (ATP)): 20.4 mM
Km ([4]; wt maize AGPase, absence of activator, Pi inhibition assay, read-out: Km for both substrates): > 20 mM
Km [5]: 57 µM
